Experimental data published in patent publication US20210300924A1, “5-[6-[[3-(4,5,6,7-TETRAHYDROPYRAZOLO[4,3-C]PYRIDIN-1-YL)AZETIDIN-1-YL]METHYL]MORPHOLIN-4-YL]QUINOLINE-8-CARBONITRILE DERIVATIVES AND SIMILAR COMPOUNDS AS TLR7-9 ANTAGONISTS FOR TREATING SYSTEMIC LUPUS ERYTHEMATOSUS” (Hoffmann-La Roche Inc., priority 2018, published 2021).

Assays:
human TLR7 = target: T1, human TLR7 (Homo sapiens, UniProt Q9NYK1); assay: HEK293-Blue-hTLR-7 cells assay; type: cell-based; conditions: HEK293-Blue-hTLR7 cells, R848 stimulation, 20 hrs, SEAP reporter; read-out: HEK/hTLR7 IC50
T1 construct: host or cells: HEK293 (HEK-Blue hTLR7)
T1 sequence (Q9NYK1 27-1049): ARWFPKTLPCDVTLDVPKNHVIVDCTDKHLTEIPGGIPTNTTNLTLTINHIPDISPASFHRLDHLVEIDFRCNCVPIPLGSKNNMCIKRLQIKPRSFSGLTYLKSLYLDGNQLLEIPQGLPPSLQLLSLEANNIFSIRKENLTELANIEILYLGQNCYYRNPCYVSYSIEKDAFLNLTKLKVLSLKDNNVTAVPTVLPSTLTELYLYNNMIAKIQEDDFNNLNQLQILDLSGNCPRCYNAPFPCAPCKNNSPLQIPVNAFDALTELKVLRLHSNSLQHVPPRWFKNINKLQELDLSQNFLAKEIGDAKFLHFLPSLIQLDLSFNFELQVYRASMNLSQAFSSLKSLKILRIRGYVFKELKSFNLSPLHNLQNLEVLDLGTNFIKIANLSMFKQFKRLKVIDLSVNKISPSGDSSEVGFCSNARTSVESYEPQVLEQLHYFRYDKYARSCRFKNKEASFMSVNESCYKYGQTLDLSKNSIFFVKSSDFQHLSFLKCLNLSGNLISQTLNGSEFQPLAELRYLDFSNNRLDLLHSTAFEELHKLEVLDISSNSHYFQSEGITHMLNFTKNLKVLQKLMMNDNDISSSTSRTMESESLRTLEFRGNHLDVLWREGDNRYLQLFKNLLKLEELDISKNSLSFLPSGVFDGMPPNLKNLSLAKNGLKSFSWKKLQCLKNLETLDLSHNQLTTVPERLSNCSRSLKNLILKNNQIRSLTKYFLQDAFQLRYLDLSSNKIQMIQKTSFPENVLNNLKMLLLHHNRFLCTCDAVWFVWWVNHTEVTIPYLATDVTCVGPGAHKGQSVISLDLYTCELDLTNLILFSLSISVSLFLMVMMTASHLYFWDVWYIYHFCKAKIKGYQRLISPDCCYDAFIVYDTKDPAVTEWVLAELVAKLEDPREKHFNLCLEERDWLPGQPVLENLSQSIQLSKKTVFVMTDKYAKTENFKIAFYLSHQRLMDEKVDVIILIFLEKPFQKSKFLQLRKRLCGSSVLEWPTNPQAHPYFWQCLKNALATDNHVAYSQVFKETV
Source text: HEK293-Blue-hTLR-7 cells assay:
A stable HEK293-Blue-hTLR-7 cell line was purchased from InvivoGen (Cat. #: hkb-htlr7, San Diego, Calif., USA). These cells were originally designed for studying the stimulation of human TLR7 by monitoring the activation of NF-κB. A SEAP (secreted embryonic alkaline phosphatase) reporter gene was placed under the control of the IFN-β minimal promoter fused to five NF-κB and AP-1-binding sites. The SEAP was induced by activating NF-κB and AP-1 via stimulating HEK-Blue hTLR7 cells with TLR7 ligands. Therefore the reporter expression was declined by TLR7 antagonist under the stimulation of a ligand, such as R848 (Resiquimod), for incubation of 20 hrs. The cell culture supernatant SEAP reporter activity was determined using QUANTI-Blue™ kit (Cat. #: rep-qb1, Invivogen, San Diego, Ca, USA) at a wavelength of 640 nm, a detection medium that turns purple or blue in the presence of alkaline phosphatase.
HEK293-Blue-hTLR7 cells were incubated at a density of 250,000-450,000 cells/mL in a volume of 170 μL in a 96-well plate in Dulbecco's Modified Eagle's medium (DMEM) containing 4.5 g/L glucose, 50 U/mL penicillin, […], […], 2 mM L-glutamine, 10% (v/v) heat-inactivated fetal bovine serum with addition of 20 μL test compound in a serial dilution in the presence of final DMSO at 1% and 10 μL of 20 uM R848 in above DMEM, perform incubation under 37° C. in a CO2 incubator for 20 hrs. Then 20 μL of the supernatant from each well was incubated with 180 μL Quanti-blue substrate solution at 37° C. for 2 hrs and the absorbance was read at 620˜655 nm using a spectrophotometer. The signaling pathway that TLR7 activation leads to downstream NF-κB activation has been widely accepted, and therefore similar reporter assay was modified for evaluating TLR7 antagonist.

CYP2D6 = target: T2, CYP2D6 (Homo sapiens, UniProt P10635); assay: CYP inhibition assay in human liver microsome; type: in vitro ADME; conditions: human liver microsomes, probe dextromethorphan, dextromethorphan substrate, percentage inhibition <0: not or weak inhibitor, read-out: CYP 2D6 inhibition % @ 10 μM
T2 construct: tissue BD-Gentest 452117; host or cells: human liver microsomes
Description: This is a high throughput screening assay used for assessment of reversible inhibition of CYP2D6 activity of test compounds in human liver microsome (HLM) in early discovery stage.
10 mM DMSO stock solutions of test compounds were diluted in DMSO to generate 2 mM intermediate stock solution. 250 nL of intermediate stock solution were transferred in duplicate into 3 separate 384 well microtitre plates (assay-ready plates). A mixture of HLM and each substrate was made up. 45 μL of HLM substrate mix was then transferred to each well of an assay ready plate and mixed. The negative (solvent) and positive control (standard inhibitor for CYP 2D6) were included in each assay ready plate. The assay ready plate was warmed to 37° C. in an incubator over 10 minutes. 5 μL pre-warmed NADPH regenerating system was added to each incubation well to start the reaction. Final incubation volume was 50 μL. The assay plate then was placed back in the 37° C. incubator. After 10 minutes incubation, incubates were quenched by addition of 50 μL 100% acetonitrile containing internal standards (20 ng/mL D3-Dextrorphan). The supernatants were collected for RapidFire/MS/MS analysis.
RapidFire online solid phase extraction/sample injection system (Agilent) coupled with API4000 triple quadrupole mass spectrometer (AB Sciex) were used for sample analysis. The mobile phase composed of acetonitrile and water supplemented with 0.1% formic acid. A C4 solid phase extraction cartridge is used for sample separation. MS detection is achieved in positive ion MRM mode.
Peak areas for substrate, metabolite and internal standard are determined using the RapidFire integrator software (version 3.6.12009.12296). Peak area ratios (PAR) of metabolite and internal standard (stable-labelled metabolite) are then calculated. The measurement window for each experiment is then defined:
PAR (0% activity)=average PAR for all incubations containing concentrated inhibitor;
Par (100% activity)=average PAR for all incubations containing no inhibitor (DMSO controls);
% Activity (test inhibitor)=
[PAR(test inhibitor)−PAR(0% activity)]/[PAR(100% activity)−PAR(0% activity)]; % Inhibition (test inhibitor)=100−% Activity (test inhibitor).

T2 sequence (P10635 whole entry): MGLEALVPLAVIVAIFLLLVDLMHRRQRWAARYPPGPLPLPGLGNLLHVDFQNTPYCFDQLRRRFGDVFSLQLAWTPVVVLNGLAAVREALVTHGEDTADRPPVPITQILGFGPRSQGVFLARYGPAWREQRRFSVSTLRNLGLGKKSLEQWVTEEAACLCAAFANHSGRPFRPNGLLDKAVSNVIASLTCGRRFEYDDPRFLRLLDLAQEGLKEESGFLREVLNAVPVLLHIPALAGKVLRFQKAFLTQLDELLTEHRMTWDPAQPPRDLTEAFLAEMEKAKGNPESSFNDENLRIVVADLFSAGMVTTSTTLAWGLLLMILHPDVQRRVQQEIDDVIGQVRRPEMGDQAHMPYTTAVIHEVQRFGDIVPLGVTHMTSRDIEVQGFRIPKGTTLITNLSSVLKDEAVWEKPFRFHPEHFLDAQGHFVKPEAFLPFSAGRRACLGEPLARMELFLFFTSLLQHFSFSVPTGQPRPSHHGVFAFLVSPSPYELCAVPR

IC50 (human TLR7) [nM] | inhibition at 10 min, 10 µM (CYP2D6) [%] | SMILES
4 | – | C[C@@H]1CN(c2ccc(C#N)c3ncccc23)C[C@H](CN2CC(n3cc4c(n3)[C@H](C)CNC4)C2)O1 (single isomer, unassigned) [Example 25]
6 | 20 | C[C@@H]1CN(c2ccc(C#N)c3ncccc23)C[C@H](CN2CC(n3cc4c(n3)[C@@H](C)CNC4)C2)O1 (single isomer, unassigned) [Example 26]
6 | 22 | C[C@@H]1CN(c2ccc(C#N)c3ncccc23)C[C@H](CN2CC(n3ncc4c3CN[C@@H](C)C4)C2)O1 (single isomer, unassigned) [Example 27]
5 | 0.5 | C[C@@H]1Cc2cnn(C3CN(C[C@H]4CN(c5ccc(C#N)c6ncccc56)C[C@@H](C)O4)C3)c2CN1 (single isomer, unassigned) [Example 28]
8 | – | C[C@@H]1CN(c2ccc(C#N)c3ncccc23)C[C@H](CN2CC(n3cc4c(n3)CN[C@@H](C)C4)C2)O1 (single isomer, unassigned) [Example 29]
5 | 3.5 | C[C@@H]1Cc2cn(C3CN(C[C@H]4CN(c5ccc(C#N)c6ncccc56)C[C@@H](C)O4)C3)nc2CN1 (single isomer, unassigned) [Example 30]
< 3 | -3.5 | C[C@@H]1CN(c2ccc(C#N)c3ncccc23)C[C@H](CN2CC(n3ncc4c3[C@@H](C)NCC4)C2)O1 (single isomer, unassigned) [Example 31]
< 3 | 11 | C[C@@H]1CN(c2ccc(C#N)c3ncccc23)C[C@H](CN2CC(n3ncc4c3[C@H](C)NCC4)C2)O1 (single isomer, unassigned) [Example 32]
7 | – | C[C@@H]1CN(c2ccc(C#N)c3ncccc23)C[C@H](CN2CC(n3cc4c(n3)[C@@H](C)NCC4)C2)O1 (single isomer, unassigned) [Example 33]
6 | -11.5 | C[C@@H]1CN(c2ccc(C#N)c3ncccc23)C[C@H](CN2CC(n3cc4c(n3)[C@H](C)NCC4)C2)O1 (single isomer, unassigned) [Example 34]
10 | – | C[C@@H]1CN(c2ccc(C#N)c3ncccc23)C[C@H](CN2CC(n3ncc4c3CCNC4)C2)O1 [Example 1, 5-[(2R,6S)-2-methyl-6-[[3-(4,5,6,7-tetrahydropyrazolo[4,3-c]pyridin-1-yl)azetidin-1-yl]methyl]morpholin-4-yl]quinoline-8-carbonitrile]
25 | 1 | C[C@@H]1CN(c2ccc(C#N)c3ncccc23)C[C@H](CN2CC(n3cc4c(n3)CCNC4)C2)O1 [Example 2, 5-[(2R,6S)-2-methyl-6-[[3-(4,5,6,7-tetrahydropyrazolo[4,3-c]pyridin-2-yl)azetidin-1-yl]methyl]morpholin-4-yl]quinoline-8-carbonitrile]
3 | 10.5 | C[C@@H]1CN(c2ccc(C#N)c3ncccc23)C[C@H](CN2CC(n3ncc4c3CNCC4)C2)O1 [Example 3, 5-[(2R,6S)-2-methyl-6-[[3-(4,5,6,7-tetrahydropyrazolo[3,4-c]pyridin-1-yl)azetidin-1-yl]methyl]morpholin-4-yl]quinoline-8-carbonitrile]
9 | 7.5 | C[C@@H]1CN(c2ccc(C#N)c3ncccc23)C[C@H](CN2CC(n3cc4c(n3)CNCC4)C2)O1 [Example 4, 5-[(2R,6S)-2-methyl-6-[[3-(4,5,6,7-tetrahydropyrazolo[3,4-c]pyridin-2-yl)azetidin-1-yl]methyl]morpholin-4-yl]quinoline-8-carbonitrile]
16 | – | C[C@@H]1CN(c2ccc(C#N)c3ncccc23)C[C@H](CN2CC(n3ncc4c3CNC4)C2)O1 [Example 10, 5-[(2S,6R)-2-[[3-(5,6-dihydro-4H-pyrrolo[3,4-c]pyrazol-1-yl)azetidin-1-yl]methyl]-6-methyl-morpholin-4-yl]quinoline-8-carbonitrile]
26 | – | Cc1nn(C2CN(C[C@H]3CN(c4ccc(C#N)c5ncccc45)C[C@@H](C)O3)C2)c2c1CN(C)CC2 [Example 14, 5-[(2S,6R)-2-[[3-(3,5-dimethyl-6,7-dihydro-4H-pyrazolo[4,3-c]pyridin-1-yl)azetidin-1-yl]methyl]-6-methyl-morpholin-4-yl]quinoline-8-carbonitrile]
4 | – | C[C@@H]1CN(c2ccc(C#N)c3ncccc23)C[C@H](CN2CC(n3cc4c(n3)C(C)(C)CNC4)C2)O1 [Example 24, 5-[(2S,6R)-2-[[3-(7,7-dimethyl-5,6-dihydro-4H-pyrazolo[4,3-c]pyridin-2-yl)azetidin-1-yl]methyl]-6-methyl-morpholin-4-yl]quinoline-8-carbonitrile]
5 | – | C[C@@H]1CN(c2ccc(C#N)c3ncccc23)C[C@H](CN2CCC(n3ncc4c3CCNC4)CC2)O1 [Example 35, 5-[(2R,6S)-2-methyl-6-[[4-(4,5,6,7-tetrahydropyrazolo[4,3-c]pyridin-1-yl)-1-piperidyl]methyl]morpholin-4-yl]quinoline-8-carbonitrile]
17 | – | Cc1c2c(nn1C1CN(C[C@H]3CN(c4ccc(C#N)c5ncccc45)C[C@@H](C)O3)C1)CNCC2 [Example 43, 5-[(2R,6S)-2-methyl-6-[[3-(3-methyl-4,5,6,7-tetrahydropyrazolo[3,4-c]pyridin-2-yl)azetidin-1-yl]methyl]morpholin-4-yl]quinoline-8-carbonitrile]
